Reference: patent US10760110B2, “Antibiotic testing and screening system” (priority 2017, dated 2020)
Converted amounts (≈) assume the structure as drawn. Where two headings read alike, the source gives them in different places.

Tests used:
Conditions in all cases: Klebsiella pneumoniae
[1] = test system: K. pneumoniae NVT1001 and its ΔompK35/36 and/or ΔramR mutants; experiment: Etest MIC, OmpK35/36 loss and AcrAB-TolC overexpression (ΔramR) strains (Table 6); type: cell-based, Klebsiella pneumoniae
How it was run: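 Etest MICs against K. pneumoniae NVT1001 and its ΔompK35/36 and/or ΔramR mutants, rounded up to the next two-fold value. For NVT1001 carrying pACYC177-blaOXA-48, ceftazidime and cefotaxime MICs by CLSI broth microdilution, interpreted with CLSI 2017 breakpoints.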

[2] = test system: K. pneumoniae NVT1001 ΔramRΔompK35/36 mutant and its revertants; experiment: Etest MIC, ΔramRΔompK35/36 mutant and its revertants (Table 7); type: cell-based
[3] = test system: K. pneumoniae NVT1001 strains with carbapenemase plasmids; experiment: Etest MIC of β-lactams, OmpK35/36 loss, ΔramR and/or carbapenemase (Table 9); type: cell-based, Klebsiella pneumoniae
How it was run: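 Etest MICs, with values between standard dilutions rounded up to the next two-fold step, were measured in K. pneumoniae NVT1001 carrying PCR-cloned resistance genes on pACYC177 or pACYC184 plasmids. Interpretation used CLSI 2017 breakpoints, CLSI 2015 for cephalothin and EUCAST 2017 for moxifloxacin. For the blaOXA-48 strain, ceftazidime and cefotaxime were additionally tested by CLSI broth microdilution.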

CC(=O)OCC1=C(C(=O)O)N2C(=O)[C@@H](NC(=O)Cc3cccs3)[C@H]2SC1 [Cephalothin]
MIC ([1]; WT, NVT1001, read-out: MIC): 8 µg/mL (≈ 20.2 µM)
MIC ([1]; Δ35, ΔompK35 mutant): 8 µg/mL (≈ 20.2 µM)
MIC ([1]; Δ35/36, ΔompK35/36 mutant): 256 µg/mL (≈ 646 µM)
MIC ([1]; Δ36, ΔompK36 mutant): 16 µg/mL (≈ 40.4 µM)
MIC ([1]; ΔramR mutant): 64 µg/mL (≈ 161 µM)
MIC ([1]; ΔramRΔ35, ΔramRΔompK35 mutant): 64 µg/mL (≈ 161 µM)
MIC ([1]; ΔramRΔ35/36, ΔramRΔompK35/36 mutant): > 256 µg/mL
MIC ([1]; ΔramRΔ36, ΔramRΔompK36 mutant): > 256 µg/mL
MIC ([2]; ΔramRΔompK35/36::ompK35/36 revertant): 64 µg/mL
MIC ([2]; ΔramRΔompK35/36::ompK35 revertant): > 256 µg/mL
MIC ([2]; ΔramRΔompK35/36::ompK36 revertant): 128 µg/mL
MIC ([2]; ΔramRΔompK35/36::ramR revertant): > 256 µg/mL
MIC ([2]; ΔramRΔompK35/36::ramR::ompK35/36 revertant): 8 µg/mL
MIC ([2]; ΔramRΔompK35/36::ramR::ompK35 revertant): 32 µg/mL
MIC ([2]; ΔramRΔompK35/36::ramR::ompK36 revertant): 8 µg/mL
MIC ([2]; ΔramRΔompK35/36 mutant): > 256 µg/mL
MIC ([3]; IMP-8 on pACYC177, WT (NVT1001), read-out: MIC): > 256 µg/mL
MIC ([3]; IMP-8 on pACYC177, Δ35 (ΔompK35 mutant)): > 256 µg/mL
MIC ([3]; IMP-8 on pACYC177, Δ35/36 (ΔompK35/36 mutant)): > 256 µg/mL
MIC ([3]; IMP-8 on pACYC177, Δ36 (ΔompK36 mutant)): > 256 µg/mL
MIC ([3]; IMP-8 on pACYC177, ΔramR mutant): > 256 µg/mL
MIC ([3]; IMP-8 on pACYC177, ΔramRΔ35 (ΔramRΔompK35 mutant)): > 256 µg/mL
MIC ([3]; IMP-8 on pACYC177, ΔramRΔ35/36 (ΔramRΔompK35/36 mutant)): > 256 µg/mL
MIC ([3]; IMP-8 on pACYC177, ΔramRΔ36 (ΔramRΔompK36 mutant)): > 256 µg/mL
MIC ([3]; KPC-2 on pACYC177, WT (NVT1001), read-out: MIC): > 256 µg/mL
MIC ([3]; KPC-2 on pACYC177, Δ35 (ΔompK35 mutant)): > 256 µg/mL
MIC ([3]; KPC-2 on pACYC177, Δ35/36 (ΔompK35/36 mutant)): > 256 µg/mL
MIC ([3]; KPC-2 on pACYC177, Δ36 (ΔompK36 mutant)): > 256 µg/mL
MIC ([3]; KPC-2 on pACYC177, ΔramR mutant): > 256 µg/mL
MIC ([3]; KPC-2 on pACYC177, ΔramRΔ35 (ΔramRΔompK35 mutant)): > 256 µg/mL
MIC ([3]; KPC-2 on pACYC177, ΔramRΔ35/36 (ΔramRΔompK35/36 mutant)): > 256 µg/mL
MIC ([3]; KPC-2 on pACYC177, ΔramRΔ36 (ΔramRΔompK36 mutant)): > 256 µg/mL
MIC ([3]; KPC-3 on pACYC177, WT (NVT1001), read-out: MIC): > 256 µg/mL
MIC ([3]; KPC-3 on pACYC177, Δ35 (ΔompK35 mutant)): > 256 µg/mL
MIC ([3]; KPC-3 on pACYC177, Δ35/36 (ΔompK35/36 mutant)): > 256 µg/mL
MIC ([3]; KPC-3 on pACYC177, Δ36 (ΔompK36 mutant)): > 256 µg/mL
MIC ([3]; KPC-3 on pACYC177, ΔramR mutant): > 256 µg/mL
MIC ([3]; KPC-3 on pACYC177, ΔramRΔ35 (ΔramRΔompK35 mutant)): > 256 µg/mL
MIC ([3]; KPC-3 on pACYC177, ΔramRΔ35/36 (ΔramRΔompK35/36 mutant)): > 256 µg/mL
MIC ([3]; KPC-3 on pACYC177, ΔramRΔ36 (ΔramRΔompK36 mutant)): > 256 µg/mL
MIC ([3]; NDM-1 on pACYC177, WT (NVT1001), read-out: MIC): > 256 µg/mL
MIC ([3]; NDM-1 on pACYC177, Δ35 (ΔompK35 mutant)): > 256 µg/mL
MIC ([3]; NDM-1 on pACYC177, Δ35/36 (ΔompK35/36 mutant)): > 256 µg/mL
MIC ([3]; NDM-1 on pACYC177, Δ36 (ΔompK36 mutant)): > 256 µg/mL
MIC ([3]; NDM-1 on pACYC177, ΔramR mutant): > 256 µg/mL
MIC ([3]; NDM-1 on pACYC177, ΔramRΔ35 (ΔramRΔompK35 mutant)): > 256 µg/mL
MIC ([3]; NDM-1 on pACYC177, ΔramRΔ35/36 (ΔramRΔompK35/36 mutant)): > 256 µg/mL
MIC ([3]; NDM-1 on pACYC177, ΔramRΔ36 (ΔramRΔompK36 mutant)): > 256 µg/mL
MIC ([3]; OXA-48 on pACYC177, WT (NVT1001), read-out: MIC): 256 µg/mL
MIC ([3]; OXA-48 on pACYC177, Δ35 (ΔompK35 mutant)): 256 µg/mL
MIC ([3]; OXA-48 on pACYC177, Δ35/36 (ΔompK35/36 mutant)): > 256 µg/mL
MIC ([3]; OXA-48 on pACYC177, Δ36 (ΔompK36 mutant)): > 256 µg/mL
MIC ([3]; OXA-48 on pACYC177, ΔramR mutant): > 256 µg/mL
MIC ([3]; OXA-48 on pACYC177, ΔramRΔ35 (ΔramRΔompK35 mutant)): > 256 µg/mL
MIC ([3]; OXA-48 on pACYC177, ΔramRΔ35/36 (ΔramRΔompK35/36 mutant)): > 256 µg/mL
MIC ([3]; OXA-48 on pACYC177, ΔramRΔ36 (ΔramRΔompK36 mutant)): > 256 µg/mL
MIC ([3]; VIM-1 on pACYC177, WT (NVT1001), read-out: MIC): > 256 µg/mL
MIC ([3]; VIM-1 on pACYC177, Δ35 (ΔompK35 mutant)): > 256 µg/mL
MIC ([3]; VIM-1 on pACYC177, Δ35/36 (ΔompK35/36 mutant)): > 256 µg/mL
MIC ([3]; VIM-1 on pACYC177, Δ36 (ΔompK36 mutant)): > 256 µg/mL
MIC ([3]; VIM-1 on pACYC177, ΔramR mutant): > 256 µg/mL
MIC ([3]; VIM-1 on pACYC177, ΔramRΔ35 (ΔramRΔompK35 mutant)): > 256 µg/mL
MIC ([3]; VIM-1 on pACYC177, ΔramRΔ35/36 (ΔramRΔompK35/36 mutant)): > 256 µg/mL
MIC ([3]; VIM-1 on pACYC177, ΔramRΔ36 (ΔramRΔompK36 mutant)): > 256 µg/mL
MIC ([3]; no supplemental plasmid, WT (NVT1001), read-out: MIC): 8 µg/mL
MIC ([3]; no supplemental plasmid, Δ35 (ΔompK35 mutant)): 8 µg/mL
MIC ([3]; no supplemental plasmid, Δ35/36 (ΔompK35/36 mutant)): 256 µg/mL
MIC ([3]; no supplemental plasmid, Δ36 (ΔompK36 mutant)): 16 µg/mL
MIC ([3]; no supplemental plasmid, ΔramR mutant): 64 µg/mL
MIC ([3]; no supplemental plasmid, ΔramRΔ35 (ΔramRΔompK35 mutant)): 64 µg/mL
MIC ([3]; no supplemental plasmid, ΔramRΔ35/36 (ΔramRΔompK35/36 mutant)): > 256 µg/mL
MIC ([3]; no supplemental plasmid, ΔramRΔ36 (ΔramRΔompK36 mutant)): > 256 µg/mL
